Reference: ChEMBL document CHEMBL3045679, “Microwave-assisted synthesis and pharmacological studies of novel 5-deazaalloxazine derivatives” (2012)
≈ marks a conversion by molar mass, not a printed value. Calls of active or inactive are those of the source. No cut-off for these calls is given here.

Columns and labels:
[1] = test system: Aspergillus niger; assay: Antifungal activity against Aspergillus niger NCIM 1196 at 1000 ug/disk after 72 hr by disk diffusion method; assay type: functional; settings: NCIM 1196, 72 h, read-out: DIZ
[2] = test system: Streptomyces albus; assay: Antibacterial activity against Streptomyces albus NCIM 2178 at 500 ug/disk after 24 hr by disk diffusion method; assay type: functional, organism-based
[3] = test system: Escherichia coli; assay: Antibacterial activity against Escherichia coli NCIM 2065 at 1000 ug/disk after 24 hr by disk diffusion method; assay type: functional; settings: NCIM 2065, 24 h, read-out: DIZ
[4] = test system: Pseudomonas aeruginosa; assay: Antibacterial activity against Pseudomonas aeruginosa NCIM 2200 at 1000 ug/disk after 24 hr by disk diffusion method; assay type: functional; settings: NCIM 2200, 24 h, read-out: DIZ
[5] = test system: Aspergillus flavus; assay: Antifungal activity against Aspergillus flavus NCIM 535 at 500 ug/disk after 72 hr by disk diffusion method; assay type: functional
[6] = test system: Escherichia coli; assay: Antibacterial activity against Escherichia coli NCIM 2065 after 24 hr by broth dilution assay; assay type: functional; settings: NCIM 2065, 24 h
[7] = test system: Streptomyces albus; assay: Antibacterial activity against Streptomyces albus NCIM 2178 at 1000 ug/disk after 24 hr by disk diffusion method; assay type: functional
[8] = test system: Rhodotorula mucilaginosa; assay: Antifungal activity against Rhodotorula mucilaginosa NCIM 3174 at 500 ug/disk after 72 hr by disk diffusion method; assay type: functional
[9] = test system: Lipomyces lipofer; assay: Antifungal activity against Lipomyces lipofer NCIM 3252 at 500 ug/disk after 72 hr by disk diffusion method; assay type: functional; settings: for zone of inhibition at 500 µg/disc: NCIM 3252, 72 h, read-out: DIZ
[10] = test system: Bacillus cereus; assay: Antibacterial activity against Bacillus cereus NCIM 2155 after 24 hr by broth dilution assay; assay type: functional; settings: NCIM 2155, 24 h
[11] = test system: Bacillus cereus; assay: Antibacterial activity against Bacillus cereus NCIM 2155 at 1000 ug/disk after 24 hr by disk diffusion method; assay type: functional; settings: NCIM 2155, 24 h, read-out: DIZ
[12] = test system: Bacillus subtilis; assay: Antibacterial activity against Bacillus subtilis NCIM 2063 at 1000 ug/disk after 24 hr by disk diffusion method; assay type: functional; settings: NCIM 2063, 24 h, read-out: DIZ
[13] = test system: Aspergillus niger; assay: Antifungal activity against Aspergillus niger NCIM 1196 at 500 ug/disk after 72 hr by disk diffusion method; assay type: functional; settings: for zone of inhibition at 500 µg/disc: NCIM 1196, 72 h, read-out: DIZ
[14] = test system: Rhodotorula mucilaginosa; assay: Antifungal activity against Rhodotorula mucilaginosa NCIM 3174 at 1000 ug/disk after 72 hr by disk diffusion method; assay type: functional; settings: for zone of inhibition at 1000 µg/disc: NCIM 3174, 72 h, read-out: DIZ
[15] = test system: Klebsiella aerogenes; assay: Antibacterial activity against Enterobacter aerogenes NCIM 2239 after 24 hr by broth dilution assay; assay type: functional; settings: NCIM 2239, 24 h
[16] = test system: Candida albicans; assay: Antifungal activity against Candida albicans NCIM 3471 at 1000 ug/disk after 72 hr by disk diffusion method; assay type: functional; settings: for zone of inhibition at 1000 µg/disc: NCIM 3471, 72 h, read-out: DIZ
[17] = test system: Aspergillus niger; assay: Antifungal activity against Aspergillus niger NCIM 1196 after 72 hr by broth dilution assay; assay type: functional; settings: NCIM 1196, 72 h
[18] = test system: Lipomyces lipofer; assay: Antifungal activity against Lipomyces lipofer NCIM 3252 at 1000 ug/disk after 72 hr by disk diffusion method; assay type: functional; settings: for zone of inhibition at 1000 µg/disc: NCIM 3252, 72 h, read-out: DIZ
[19] = test system: Penicillium chrysogenum; assay: Antifungal activity against Penicillium chrysogenum NCIM 707 at 500 ug/disk after 72 hr by disk diffusion method; assay type: functional
[20] = test system: Pseudomonas aeruginosa; assay: Antibacterial activity against Pseudomonas aeruginosa NCIM 2200 at 500 ug/disk after 24 hr by disk diffusion method; assay type: functional
[21] = test system: Lipomyces lipofer; assay: Antifungal activity against Lipomyces lipofer NCIM 3252 after 72 hr by broth dilution assay; assay type: functional; settings: NCIM 3252, 72 h
[22] = test system: Bacillus subtilis; assay: Antibacterial activity against Bacillus subtilis NCIM 2063 at 500 ug/disk after 24 hr by disk diffusion method; assay type: functional; settings: for zone of inhibition at 500 µg/disc: NCIM 2063, 24 h, read-out: DIZ
[23] = test system: Pseudomonas aeruginosa; assay: Antibacterial activity against Pseudomonas aeruginosa NCIM 2200 after 24 hr by broth dilution assay; assay type: functional; settings: NCIM 2200, 24 h
[24] = test system: Streptomyces albus; assay: Antibacterial activity against Streptomyces albus NCIM 2178 after 24 hr by broth dilution assay; assay type: functional; settings: NCIM 2178, 24 h
[25] = test system: Bacillus subtilis; assay: Antibacterial activity against Bacillus subtilis NCIM 2063 after 24 hr by broth dilution assay; assay type: functional; settings: NCIM 2063, 24 h
[26] = test system: Bacillus cereus; assay: Antibacterial activity against Bacillus cereus NCIM 2155 at 500 ug/disk after 24 hr by disk diffusion method; assay type: functional
[27] = test system: Klebsiella aerogenes; assay: Antibacterial activity against Enterobacter aerogenes NCIM 2239 at 1000 ug/disk after 24 hr by disk diffusion method; assay type: functional; settings: NCIM 2239, 24 h, read-out: DIZ
[28] = test system: Penicillium chrysogenum; assay: Antifungal activity against Penicillium chrysogenum NCIM 707 at 1000 ug/disk after 72 hr by disk diffusion method; assay type: functional; settings: NCIM 707, 72 h, read-out: DIZ
[29] = test system: Escherichia coli; assay: Antibacterial activity against Escherichia coli NCIM 2065 at 500 ug/disk after 24 hr by disk diffusion method; assay type: functional; settings: for zone of inhibition at 500 µg/disc: NCIM 2065, 24 h, read-out: DIZ
[30] = test system: Klebsiella aerogenes; assay: Antibacterial activity against Enterobacter aerogenes NCIM 2239 at 500 ug/disk after 24 hr by disk diffusion method; assay type: functional
[31] = test system: Aspergillus flavus; assay: Antifungal activity against Aspergillus flavus NCIM 535 at 1000 ug/disk after 72 hr by disk diffusion method; assay type: functional; settings: NCIM 535, 72 h, read-out: DIZ
[32] = test system: Candida albicans; assay: Antifungal activity against Candida albicans NCIM 3471 at 500 ug/disk after 72 hr by disk diffusion method; assay type: functional
[33] = test system: Candida albicans; assay: Antifungal activity against Candida albicans NCIM 3471 after 72 hr by broth dilution assay; assay type: functional; settings: NCIM 3471, 72 h
[34] = test system: Rhodotorula mucilaginosa; assay: Antifungal activity against Rhodotorula mucilaginosa NCIM 3174 after 72 hr by broth dilution assay; assay type: functional; settings: NCIM 3174, 72 h

Structure (SMILES): Cc1cccc2cc3c(=O)[nH]c(=S)[nH]c3nc12
- zone of inhibition at 1000 µg/disc [1]: 16 mm
- diameter of the inhibition zone (DIZ) [2]: inactive
- zone of inhibition at 1000 µg/disc [3]: 11 mm
- zone of inhibition at 1000 µg/disc [4]: 12 mm
- diameter of the inhibition zone (DIZ) [5]: inactive
- MIC [6]: 31.2 µg/mL (≈ 128 µM)
- zone of inhibition at 1000 µg/disc ([7]; NCIM 2178, 24 h, read-out: DIZ): 12 mm
- diameter of the inhibition zone (DIZ) [8]: inactive
- zone of inhibition at 500 µg/disc [9]: 8 mm
- MIC [10]: 31.2 µg/mL (≈ 128 µM)
- zone of inhibition at 1000 µg/disc [11]: 13 mm
- zone of inhibition at 1000 µg/disc [12]: 12 mm
- zone of inhibition at 500 µg/disc [13]: 12 mm
- diameter of the inhibition zone (DIZ) [14]: inactive
- MIC [15]: 15.6 µg/mL (≈ 64.1 µM)
- diameter of the inhibition zone (DIZ) [16]: inactive
- MIC [17]: 3.9 µg/mL (≈ 16 µM)
- zone of inhibition at 1000 µg/disc [18]: 10 mm
- diameter of the inhibition zone (DIZ) [19]: inactive
- diameter of the inhibition zone (DIZ) [20]: inactive
- MIC [21]: 125 µg/mL (≈ 514 µM)
- zone of inhibition at 500 µg/disc [22]: 9 mm
- MIC [23]: 6.5 µg/mL (≈ 26.7 µM)
- MIC [24]: 125 µg/mL (≈ 514 µM)
- MIC [25]: 31.2 µg/mL (≈ 128 µM)
- diameter of the inhibition zone (DIZ) [26]: inactive
- zone of inhibition at 1000 µg/disc [27]: 10 mm
- zone of inhibition at 1000 µg/disc [28]: 9 mm
- zone of inhibition at 500 µg/disc [29]: 8 mm
- diameter of the inhibition zone (DIZ) [30]: inactive
- zone of inhibition at 1000 µg/disc [31]: 10 mm
- diameter of the inhibition zone (DIZ) [32]: inactive

Structure (SMILES): O=c1[nH]c(=S)[nH]c2nc3ccc(Cl)cc3cc12
- zone of inhibition at 1000 µg/disc [1]: 14 mm
- diameter of the inhibition zone (DIZ) [2]: inactive
- zone of inhibition at 1000 µg/disc [3]: 10 mm
- zone of inhibition at 1000 µg/disc [4]: 13 mm
- diameter of the inhibition zone (DIZ) [5]: inactive
- MIC [6]: 62.5 µg/mL (≈ 237 µM)
- diameter of the inhibition zone (DIZ) [7]: inactive
- diameter of the inhibition zone (DIZ) [8]: inactive
- zone of inhibition at 500 µg/disc [9]: 9 mm
- MIC [10]: 62.5 µg/mL (≈ 237 µM)
- zone of inhibition at 1000 µg/disc [11]: 13 mm
- zone of inhibition at 1000 µg/disc [12]: 14 mm
- zone of inhibition at 500 µg/disc [13]: 11 mm
- zone of inhibition at 1000 µg/disc [14]: 12 mm
- MIC [15]: 31.2 µg/mL (≈ 118 µM)
- zone of inhibition at 1000 µg/disc [16]: 11 mm
- MIC [17]: 3.9 µg/mL (≈ 14.8 µM)
- zone of inhibition at 1000 µg/disc [18]: 15 mm
- diameter of the inhibition zone (DIZ) [19]: inactive
- zone of inhibition at 500 µg/disc ([20]; NCIM 2200, 24 h, read-out: DIZ): 10 mm
- MIC [21]: 7.8 µg/mL (≈ 29.6 µM)
- zone of inhibition at 500 µg/disc [22]: 11 mm
- MIC [23]: 7.8 µg/mL (≈ 29.6 µM)
- MIC [25]: 3.9 µg/mL (≈ 14.8 µM)
- zone of inhibition at 500 µg/disc ([26]; NCIM 2155, 24 h, read-out: DIZ): 9 mm
- zone of inhibition at 1000 µg/disc [27]: 10 mm
- zone of inhibition at 1000 µg/disc [28]: 10 mm
- zone of inhibition at 500 µg/disc [29]: 8 mm
- zone of inhibition at 500 µg/disc ([30]; NCIM 2239, 24 h, read-out: DIZ): 8 mm
- zone of inhibition at 1000 µg/disc [31]: 10 mm
- diameter of the inhibition zone (DIZ) [32]: inactive

Structure (SMILES): COc1cccc2cc3c(=O)[nH]c(=O)[nH]c3nc12
- zone of inhibition at 1000 µg/disc [1]: 11 mm
- diameter of the inhibition zone (DIZ) [2]: inactive
- zone of inhibition at 1000 µg/disc [3]: 12 mm
- zone of inhibition at 1000 µg/disc [4]: 10 mm
- diameter of the inhibition zone (DIZ) [5]: inactive
- MIC [6]: 7.8 µg/mL (≈ 32.1 µM)
- diameter of the inhibition zone (DIZ) [7]: inactive
- zone of inhibition at 500 µg/disc ([8]; NCIM 3174, 72 h, read-out: DIZ): 8 mm
- diameter of the inhibition zone (DIZ) [9]: inactive
- MIC [10]: 31.5 µg/mL (≈ 130 µM)
- zone of inhibition at 1000 µg/disc [11]: 12 mm
- zone of inhibition at 1000 µg/disc [12]: 10 mm
- diameter of the inhibition zone (DIZ) [13]: inactive
- MIC [33]: 125 µg/mL (≈ 514 µM)
- zone of inhibition at 1000 µg/disc [14]: 10 mm
- MIC [15]: 62.5 µg/mL (≈ 257 µM)
- zone of inhibition at 1000 µg/disc [16]: 12 mm
- MIC [17]: 125 µg/mL (≈ 514 µM)
- diameter of the inhibition zone (DIZ) [18]: inactive
- diameter of the inhibition zone (DIZ) [19]: inactive
- diameter of the inhibition zone (DIZ) [20]: inactive
- diameter of the inhibition zone (DIZ) [22]: inactive
- MIC [23]: 62.5 µg/mL (≈ 257 µM)
- MIC [25]: 62.5 µg/mL (≈ 257 µM)
- diameter of the inhibition zone (DIZ) [26]: inactive
- zone of inhibition at 1000 µg/disc [27]: 8 mm
- MIC [34]: 31.2 µg/mL (≈ 128 µM)
- zone of inhibition at 1000 µg/disc [28]: 8 mm
- diameter of the inhibition zone (DIZ) [29]: inactive
- diameter of the inhibition zone (DIZ) [30]: inactive
- zone of inhibition at 1000 µg/disc [31]: 8 mm
- diameter of the inhibition zone (DIZ) [32]: inactive
